Measured values: ChEMBL document CHEMBL4190180 (Medchemcomm, 2016)

Assays:
[1] = tested on: T47D; test: Antiproliferative activity against human T47D cells after 72 hrs by MTT assay; format: functional, cell-based
[2] = Selectivity ratio of IC50 for human MCF7 cells to IC50 for human T47D cells; format: functional
[3] = target: T1, ATP-dependent translocase ABCB1 (Homo sapiens, UniProt P08183); test: Inhibition of human ABCB1 expressed in mouse L5178 cells assessed as potentiation of doxorubicin-induced cytotoxicity by measuring combination index at ED75 in presence of 81.5:1 ratio of doxorubicin to test compound after 48 hrs by MTT assay; format: cell-based
T1 sequence (P08183 whole entry): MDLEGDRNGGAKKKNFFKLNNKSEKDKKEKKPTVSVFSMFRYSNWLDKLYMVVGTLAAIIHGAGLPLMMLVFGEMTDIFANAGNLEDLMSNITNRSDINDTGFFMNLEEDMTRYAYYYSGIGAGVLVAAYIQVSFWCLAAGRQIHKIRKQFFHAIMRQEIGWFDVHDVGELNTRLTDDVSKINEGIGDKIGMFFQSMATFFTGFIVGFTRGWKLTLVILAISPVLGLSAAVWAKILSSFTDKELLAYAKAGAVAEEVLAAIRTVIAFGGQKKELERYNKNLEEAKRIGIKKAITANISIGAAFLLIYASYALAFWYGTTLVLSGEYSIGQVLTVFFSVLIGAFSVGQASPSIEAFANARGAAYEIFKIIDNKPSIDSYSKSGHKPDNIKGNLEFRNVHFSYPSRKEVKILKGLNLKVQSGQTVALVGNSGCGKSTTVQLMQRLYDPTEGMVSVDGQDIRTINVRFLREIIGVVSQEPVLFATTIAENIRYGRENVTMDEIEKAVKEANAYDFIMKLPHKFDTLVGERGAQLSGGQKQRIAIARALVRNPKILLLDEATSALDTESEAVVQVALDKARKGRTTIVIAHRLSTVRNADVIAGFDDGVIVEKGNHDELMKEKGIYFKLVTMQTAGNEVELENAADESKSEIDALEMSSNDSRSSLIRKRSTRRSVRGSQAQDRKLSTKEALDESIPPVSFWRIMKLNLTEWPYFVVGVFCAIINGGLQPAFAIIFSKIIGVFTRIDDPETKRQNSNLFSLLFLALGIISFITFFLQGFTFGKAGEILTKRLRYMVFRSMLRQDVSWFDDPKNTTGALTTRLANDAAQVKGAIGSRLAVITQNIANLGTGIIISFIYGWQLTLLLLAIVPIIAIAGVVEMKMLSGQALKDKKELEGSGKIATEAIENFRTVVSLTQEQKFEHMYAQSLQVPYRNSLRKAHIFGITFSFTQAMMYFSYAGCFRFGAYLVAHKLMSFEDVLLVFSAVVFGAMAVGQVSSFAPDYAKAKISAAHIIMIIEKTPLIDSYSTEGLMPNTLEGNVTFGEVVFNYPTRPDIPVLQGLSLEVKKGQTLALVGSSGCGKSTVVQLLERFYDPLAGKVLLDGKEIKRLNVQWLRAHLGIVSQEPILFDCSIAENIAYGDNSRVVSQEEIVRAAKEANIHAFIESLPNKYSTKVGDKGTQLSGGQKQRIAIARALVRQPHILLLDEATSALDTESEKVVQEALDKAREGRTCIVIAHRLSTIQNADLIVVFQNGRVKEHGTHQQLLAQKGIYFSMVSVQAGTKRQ

[4] = Antiproliferative activity against mouse L5178 cells harboring human ABCB1 after 72 hrs by MTT assay; format: functional, cell-based; conditions: L5178, 72 h
[5] = Potentiation of doxorubicin-induced cytotoxicity in mouse L5178 cells assessed as combination index at ED90 in presence of 326:1 ratio of doxorubicin to test compound after 48 hrs by MTT assay; format: functional
[6] = target: T1, ATP-dependent translocase ABCB1; test: Inhibition of human ABCB1 expressed in mouse L5178 cells assessed as potentiation of doxorubicin-induced cytotoxicity by measuring combination index at ED50 in presence of 81.5:1 ratio of doxorubicin to test compound after 48 hrs by MTT assay; format: cell-based
[7] = target: T1, ATP-dependent translocase ABCB1; test: Inhibition of human ABCB1 expressed in mouse L5178 cells assessed as potentiation of doxorubicin-induced cytotoxicity by measuring combination index at ED90 in presence of 81.5:1 ratio of doxorubicin to test compound after 48 hrs by MTT assay; format: cell-based
[8] = Potentiation of doxorubicin-induced cytotoxicity in mouse L5178 cells assessed as combination index at ED50 in presence of 81.5:1 ratio of doxorubicin to test compound after 48 hrs by MTT assay; format: functional
[9] = Potentiation of doxorubicin-induced cytotoxicity in mouse L5178 cells assessed as combination index at ED90 in presence of 163:1 ratio of doxorubicin to test compound after 48 hrs by MTT assay; format: functional
[10] = tested on: MDA-MB-231; test: Antiproliferative activity against human MDA-MB-231 cells after 72 hrs by MTT assay; format: functional, cell-based; conditions: MDA-MB-231, 72 h
[11] = target: T1, ATP-dependent translocase ABCB1; test: Inhibition of human ABCB1 expressed in mouse L5178 cells assessed as potentiation of doxorubicin-induced cytotoxicity by measuring combination index at ED90 in presence of 20.4:1 ratio of doxorubicin to test compound after 48 hrs by MTT assay; format: cell-based
[12] = target: T1, ATP-dependent translocase ABCB1; test: Inhibition of human ABCB1 expressed in mouse L5178 cells assessed as potentiation of doxorubicin-induced cytotoxicity by measuring combination index at ED75 in presence of 20.4:1 ratio of doxorubicin to test compound after 48 hrs by MTT assay; format: cell-based
[13] = tested on: MCF7; test: Antiproliferative activity against human MCF7 cells after 72 hrs by MTT assay; format: functional, cell-based; conditions: MCF7, 72 h
[14] = Potentiation of doxorubicin-induced cytotoxicity in mouse L5178 cells assessed as combination index at ED75 in presence of 326:1 ratio of doxorubicin to test compound after 48 hrs by MTT assay; format: functional
[15] = Potentiation of doxorubicin-induced cytotoxicity in mouse L5178 cells assessed as combination index at ED75 in presence of 81.5:1 ratio of doxorubicin to test compound after 48 hrs by MTT assay; format: functional
[16] = Potentiation of doxorubicin-induced cytotoxicity in mouse L5178 cells assessed as combination index at ED75 in presence of 163:1 ratio of doxorubicin to test compound after 48 hrs by MTT assay; format: functional
[17] = tested on: SH-SY5Y; test: Antiproliferative activity against human SH-SY5Y cells after 48 hrs by MTT assay
[18] = target: T1, ATP-dependent translocase ABCB1; test: Inhibition of human ABCB1 expressed in mouse L5178 cells assessed as rhodamine-123 accumulation by measuring fluorescence activity ratio at 20 uM pretreated for 10 mins followed by rhodamine-123 addition measured after 20 mins by flow cytometric analysis; format: cell-based
[19] = Potentiation of doxorubicin-induced cytotoxicity in mouse L5178 cells assessed as combination index at ED50 in presence of 163:1 ratio of doxorubicin to test compound after 48 hrs by MTT assay; format: functional
[20] = target: T1, ATP-dependent translocase ABCB1; test: Inhibition of human ABCB1 expressed in mouse L5178 cells assessed as potentiation of doxorubicin-induced cytotoxicity by measuring combination index at ED75 in presence of 10.2:1 ratio of doxorubicin to test compound after 48 hrs by MTT assay; format: cell-based
[21] = target: T1, ATP-dependent translocase ABCB1; test: Inhibition of human ABCB1 expressed in mouse L5178 cells assessed as potentiation of doxorubicin-induced cytotoxicity by measuring combination index at ED50 in presence of 20.4:1 ratio of doxorubicin to test compound after 48 hrs by MTT assay; format: cell-based
[22] = target: T1, ATP-dependent translocase ABCB1; test: Inhibition of human ABCB1 expressed in mouse L5178 cells assessed as rhodamine-123 accumulation by measuring fluorescence activity ratio at 2 uM pretreated for 10 mins followed by rhodamine-123 addition measured after 20 mins by flow cytometric analysis; format: cell-based
[23] = target: T1, ATP-dependent translocase ABCB1; test: Inhibition of human ABCB1 expressed in mouse L5178 cells assessed as potentiation of doxorubicin-induced cytotoxicity by measuring combination index at ED50 in presence of 10.2:1 ratio of doxorubicin to test compound after 48 hrs by MTT assay; format: cell-based
[24] = Potentiation of doxorubicin-induced cytotoxicity in mouse L5178 cells assessed as combination index at ED90 in presence of 81.5:1 ratio of doxorubicin to test compound after 48 hrs by MTT assay; format: functional
[25] = Potentiation of doxorubicin-induced cytotoxicity in mouse L5178 cells assessed as combination index at ED50 in presence of 326:1 ratio of doxorubicin to test compound after 48 hrs by MTT assay; format: functional
[26] = Antiproliferative activity against mouse L5178 cells after 72 hrs by MTT assay; format: functional, cell-based; conditions: L5178, 72 h
[27] = target: T1, ATP-dependent translocase ABCB1; test: Inhibition of human ABCB1 expressed in mouse L5178 cells assessed as potentiation of doxorubicin-induced cytotoxicity by measuring combination index at ED90 in presence of 10.2:1 ratio of doxorubicin to test compound after 48 hrs by MTT assay; format: cell-based
[28] = tested on: MDA-MB-361; test: Antiproliferative activity against human MDA-MB-361 cells after 72 hrs by MTT assay; format: functional, cell-based; conditions: MDA-MB-361, 72 h

| SMILES | IC50 [1] | IC50 [10] | IC50 [13] | IC50 [17] | Ratio [18] | CI [3] | IC50 [4] | CI [5] | CI [6] | CI [7] | CI [8] | CI [9] | CI [11] | CI [12] | CI [14] | CI [15] | CI [16] | CI [19] | CI [20] | IC50 [26] | further results |
| --- | --- | --- | --- | --- | --- | --- | --- | --- | --- | --- | --- | --- | --- | --- | --- | --- | --- | --- | --- | --- | --- |
| CC(C)(F)CC[C@@H]1OC(C)(C)O[C@]1(C)[C@H]1CC[C@@]2(F)C3=CC(=O)[C@@H]4C[C@H]5OC(C)(C)O[C@H]5C[C@]4(C)[C@H]3CC[C@]12C | 49.2 µM | 98.4 µM | 128 µM | 126 µM | 89.78 | 0.16 | 82.3 µM | 0.52 | 0.24 | 0.11 | 0.7 | 0.34 | 0.07 | 0.12 | 0.59 | 0.42 | 0.44 | 0.6 | 0.11 | 88.6 µM | Ratio IC50 [2]: 3; CI [21]: 0.21; Ratio [22]: 11.02; CI [23]: 0.23; CI [24]: 0.27; CI [25]: 0.72; CI [27]: 0.06; IC50 [28]: 53.8 µM |
| CC(C)(F)CC[C@@H]1OC(C)(C)O[C@]1(C)[C@H]1CC[C@@]2(O)C3=CC(=O)[C@@H]4C[C@H]5OC(C)(C)O[C@H]5C[C@]4(C)[C@H]3CC[C@]12C | 70.3 µM | 48.9 µM | 63.1 µM | 70.7 µM | 38.62 | 0.33 | 50.1 µM | 0.91 | 0.35 | 0.33 | 0.8 | 0.71 | 0.19 | 0.19 | 0.96 | 0.66 | 0.76 | 0.85 | 0.17 | 48.3 µM | CI [21]: 0.19; Ratio [22]: 1.59; CI [23]: 0.19; CI [24]: 0.56; CI [25]: 1.04; CI [27]: 0.16; IC50 [28]: 30.9 µM |
| CC(C)(O)CC[C@@H]1OC(C)(C)O[C@]1(C)[C@H]1CC[C@@]2(O)C3=CC(=O)[C@@H]4C[C@H]5OC(C)(C)O[C@H]5C[C@]4(C)[C@H]3CC[C@]12C | 84.7 µM | 106 µM | 75.1 µM | 127 µM | 11.28 | 0.22 | 106 µM | 0.51 | 0.39 | 0.12 | 0.74 | 0.46 | 0.07 | 0.14 | 0.55 | 0.71 | 0.55 | 0.67 | 0.18 | 82.9 µM | CI [21]: 0.27; Ratio [22]: 3.33; CI [23]: 0.31; CI [24]: 0.68; CI [25]: 0.61; CI [27]: 0.11; IC50 [28]: 69.2 µM |
| CC(C)(O)CC[C@@H]1OC(C)(C)O[C@]1(C)[C@H]1CC=C2C3=CC(=O)[C@@H]4C[C@H]5OC(C)(C)O[C@H]5C[C@]4(C)[C@H]3CC[C@@]21C | 10.9 µM | 38.5 µM | 30.1 µM | 20.8 µM | 57.36 | 0.87 | 19.3 µM | 0.73 | 1.09 | 0.69 | 0.99 | 0.86 | 0.37 | 0.44 | 0.81 | 0.89 | 0.89 | 0.93 | 0.45 | 14.6 µM | Ratio IC50 [2]: 3; CI [21]: 0.54; Ratio [22]: 1.28; CI [23]: 0.55; CI [24]: 0.82; CI [25]: 0.9; CI [27]: 0.39; IC50 [28]: 13.8 µM |

Stronger by IC50 [17], values ahead:

| IC50 [1] | IC50 [10] | IC50 [13] | IC50 [17] | Ratio [18] | SMILES | CI [3] | IC50 [4] | CI [5] | CI [6] | CI [7] | CI [8] | CI [9] | CI [11] | CI [12] | CI [14] | CI [15] | CI [16] | CI [19] | CI [20] | IC50 [26] | further results |
| --- | --- | --- | --- | --- | --- | --- | --- | --- | --- | --- | --- | --- | --- | --- | --- | --- | --- | --- | --- | --- | --- |
| 17.4 µM | 50.2 µM | 43.8 µM | 18.8 µM | 109.37 | CC(C)(F)CC[C@@H]1OC(C)(C)O[C@]1(C)[C@H]1CC=C2C3=CC(=O)[C@@H]4C[C@H]5OC(C)(C)O[C@H]5C[C@]4(C)[C@H]3CC[C@@]21C | 0.73 | 17.4 µM | 0.9 | 0.78 | 0.69 | 0.73 | 0.95 | 0.28 | 0.36 | 0.84 | 0.8 | 0.87 | 0.8 | 0.34 | 14.1 µM | Ratio IC50 [2]: 3; CI [21]: 0.48; Ratio [22]: 31.15; CI [23]: 0.56; CI [24]: 0.89; CI [25]: 0.79; CI [27]: 0.22; IC50 [28]: 11.8 µM |
| – | – | – | 0.14 µM | – | COc1cccc2c1C(=O)c1c(O)c3c(c(O)c1C2=O)C[C@@](O)(C(=O)CO)C[C@@H]3O[C@H]1C[C@H](N)[C@H](O)[C@H](C)O1 [DOXORUBICIN] | – | 3.54 µM | – | – | – | – | – | – | – | – | – | – | – | – | 0.23 µM | – |
